Experimental data from patent publication US20060111306A1, “DEHYDROEPHIANDROSTERONE AND UBIQUINONE COMPOSITIONS FOR TREATING ASTHMA AND BRONOCONSTRICTION” (priority 1995, published 2006).

Test system: Intracellular Adenosine in Various Rat Tissues
Test: In vivo effect on tissue adenosine levels (HPLC of 1,N6-ethenoadenosine)
Parameters: species or system Fischer 344 rats
Conditions: rats
Method: Folinic acid (50 mg/kg) was administered intraperitoneally once daily for fourteen days. […] Hearts were removed from animals and flash frozen in liquid nitrogen with 10 seconds of death. Liver and lungs were removed en bloc and flash frozen with 30 seconds of death. Brain tissue was subsequently dissected.

Nc1nc(=O)c2c([nH]1)NCC(CNc1ccc(C(=O)N[C@@H](CCC(=O)O)C(=O)O)cc1)N2C=O (mixture of isomers) [Folinic Acid (F.A.), Folinic acid]
effect on adenosine levels, administered alone (in words) (folinic acid alone, all organs studied): increase in adenosine levels for all organs studied
effect of co-administration on steroid-mediated adenosine depletion (in words) (folinic acid co-administered with DHEA or methyltestosterone): completely abrogated steroid-mediated adenosine depletion
